# Values quoted from earlier work in PubChem BioAssay AID1259409 (Chemical Carcinogenesis Research Information System (CCRIS), 2018).
# System: rodent chemically induced tumor inhibition, incidence and multiplicity
# Assay: CCRIS tumor inhibitor studies
# Conditions: Route [Inhibitor]: ORAL
structure (smiles),measurement,setting,value
Cc1c(C)c2c(c(C)c1O)CC[C@@](C)(CCC[C@H](C)CCC[C@H](C)CCCC(C)C)O2,"tumour outcome (control, treated, inhibition, significance)","Carcinogen: 3,2-DIMETHYL-4-AMINOBIPHENYL, 13394-86-0, Dose [Inhibitor]: 0, 1% IN BASAL DIET BEGINNING POST CARCINOGEN TREATMENT AND CONTINUING FOR 40 WK (STUDY DURATION: 60 WK), Species: RAT, Strain/Sex: F344/MALE, Target Tissue: Type of Lesion: PANCREAS: ACINAR CELL NODULE, Dose [Carcinogen]: 50 MG/KG 1/2 WK FOR 20 WK TO RATS MAINTAINED ON ETHINYL ESTRADIOL CONTAINING DIET (0.75 PPM) FOR 1 WK CYCLED WITH ETHINY, Promoter: ETHINYL ESTRADIOL, 57-63-6","4/10 (40%), 5/12 (42%), -5%, not significant"
same,"tumour outcome (control, treated, inhibition, significance)","Carcinogen: 3,2-DIMETHYL-4-AMINOBIPHENYL, 13394-86-0, Dose [Inhibitor]: 0, 1% IN BASAL DIET BEGINNING POST CARCINOGEN TREATMENT AND CONTINUING FOR 40 WK (STUDY DURATION: 60 WK), Species: RAT, Strain/Sex: F344/MALE, Target Tissue: Type of Lesion: PROSTATE: CARCINOMA, Dose [Carcinogen]: 50 MG/KG 1/2 WK FOR 20 WK TO RATS MAINTAINED ON ETHINYL ESTRADIOL CONTAINING DIET (0.75 PPM) FOR 1 WK CYCLED WITH ETHINY, Promoter: ETHINYL ESTRADIOL, 57-63-6","5/10 (50%), 6/12 (50%), 0%, not significant"
same,"tumour outcome (control, treated, inhibition, significance)","Carcinogen: 4-NITROQUINOLINE 1-OXIDE, 56-57-5, Dose [Inhibitor]: 25.5, 550.9 MG/KG IN DIET FOR DURATION OF STUDY (STUDY DURATION: 23 WK), Species: MOUSE, Strain/Sex: DDY/MALE, Target Tissue: Type of Lesion: LUNG: TUMOR, Dose [Carcinogen]: 10 MG/KG BW SUSPENDED IN OLIVE OIL AND CHOLESTEROL (20:1, W/W) ONCE, Promoter: NONE USED","6/11 (55%), 4/11 (36%), 36%, not significant"
same,"tumour outcome (control, treated, inhibition, significance)","Carcinogen: 4-NITROQUINOLINE 1-OXIDE, 56-57-5, Dose [Inhibitor]: EXCESSIVE VITAMIN E (DOSE NOT STATED) IN THE DIET FOR 4 WK POST CARCINOGEN DOSE (STUDY DURATION: 23 WK), Species: MOUSE, Strain/Sex: DDY/MALE, Target Tissue: Type of Lesion: LUNG: TUMOR, Dose [Carcinogen]: 10 MG/KG BW ONCE, Promoter: GLYCEROL, 56-81-5","9/11 (82%), 5/11 (45%), 45%, not calculated"
same,"tumour outcome (control, treated, inhibition, significance)","Carcinogen: 4-NITROQUINOLINE 1-OXIDE, 56-57-5, Dose [Inhibitor]: EXCESSIVE VITAMIN E (DOSE NOT STATED) IN THE DIET FOR 23 WK POST CARCINOGEN DOSE (STUDY DURATION: 23 WK), Species: MOUSE, Strain/Sex: DDY/MALE, Target Tissue: Type of Lesion: LUNG: TUMOR, Dose [Carcinogen]: 10 MG/KG BW ONCE, Promoter: GLYCEROL, 56-81-5","9/11 (82%), 2/9 (22%), 73%, not calculated"
same,"tumour outcome (control, treated, inhibition, significance)","Carcinogen: 7,12-DIMETHYLBENZ[A]ANTHRACENE, 57-97-6, Dose [Inhibitor]: 0, 3.349 UMOL/G IN DIET FOR DURATION OF STUDY (STUDY DURATION: 18 WK), Species: RAT, Strain/Sex: SPRAGUE-DAWLEY/FEMALE, Target Tissue: Type of Lesion: MAMMARY GLAND: TUMOR, Dose [Carcinogen]: 50 MG/KG IN SESAME OIL ONCE, Promoter: NONE USED","88%, 79%, 10%, not significant"
same,"tumour outcome (control, treated, inhibition, significance)","Carcinogen: 7,12-DIMETHYLBENZ[A]ANTHRACENE, 57-97-6, Dose [Inhibitor]: 0.2% IN DIET FROM WEANING ONWARD (STUDY DURATION: 6 MO AFTER CARCINOGEN ADMINISTRATION), Species: RAT, Strain/Sex: SPRAGUE-DAWLEY/FEMALE, Target Tissue: Type of Lesion: MAMMARY GLAND: TUMOR, Dose [Carcinogen]: 10 MG/RAT IN 1 ML STRIPPED CORN OIL SINGLE DOSE ON D 50 FOLLOWING 24 HR FASTING PERIOD, Promoter: NONE USED","70%, 70%, 0%, not calculated"
same,"tumour outcome (control, treated, inhibition, significance)","Carcinogen: 7,12-DIMETHYLBENZ[A]ANTHRACENE, 57-97-6, Dose [Inhibitor]: 0.2% IN DIET FROM WEANING ONWARD (STUDY DURATION: 6 MO AFTER CARCINOGEN ADMINISTRATION), Species: RAT, Strain/Sex: SPRAGUE-DAWLEY/FEMALE, Target Tissue: Type of Lesion: MAMMARY GLAND: TUMOR, Dose [Carcinogen]: 10 MG/RAT IN 1 ML STRIPPED CORN OIL, SINGLE DOSE ON D 5 FOLLOWING 24 HR FASTING PERIOD, Promoter: NONE USED","40%, 37%, 8%, not calculated"
same,"tumour outcome (control, treated, inhibition, significance)","Carcinogen: 7,12-DIMETHYLBENZ[A]ANTHRACENE, 57-97-6, Dose [Inhibitor]: 0.2% IN DIET FROM WEANING ONWARD (STUDY DURATION: 6 MO AFTER CARCINOGEN ADMINISTRATION), Species: RAT, Strain/Sex: SPRAGUE-DAWLEY/FEMALE, Target Tissue: Type of Lesion: MAMMARY GLAND: TUMOR, Dose [Carcinogen]: 10 MG/RAT IN 1 ML STRIPPED CORN OIL, SINGLE DOSE ON D 50 FOLLOWING 24 HR FASTING PERIOD, Promoter: NONE USED","100%, 100%, 0%, not calculated"
same,"tumour outcome (control, treated, inhibition, significance)","Carcinogen: 7,12-DIMETHYLBENZ[A]ANTHRACENE, 57-97-6, Dose [Inhibitor]: 0.2% IN DIET, UNSATURATED FAT THROUGHOUT THE EXPERIMENT, (STUDY DURATION: 32 WK), Species: RAT, Strain/Sex: SPRAGUE-DAWLEY/FEMALE, Target Tissue: Type of Lesion: MAMMARY GLAND: PARENCHYMAL CARCINOMA, Dose [Carcinogen]: 10 MG IN 1 ML CORN OIL AT 50 D OF AGE CELL ONCE, Promoter: NONE USED","100%, 100%, 0%, not calculated"
same,"tumour outcome (control, treated, inhibition, significance)","Carcinogen: 7,12-DIMETHYLBENZ[A]ANTHRACENE, 57-97-6, Dose [Inhibitor]: 0.2% IN HIGH POLYUNSATURATED FAT DIET DAILY STARTING 29 D BEFORE CARCINOGEN TREATMENT AND CONTINUING FOR DURATION OF STU, Species: RAT, Strain/Sex: SPRAGUE-DAWLEY/FEMALE, Target Tissue: Type of Lesion: MAMMARY GLAND: ADENOCARCINOMA, Dose [Carcinogen]: 10 MG IN 1 ML STRIPPED CORN OIL ONCE AT 50 D OF AGE, Promoter: NONE USED","100%, 100%, 0%, not calculated"
